Patent publication EP2687509A2, “Dicarboxyimides derivatives for use in the treatment of cancer” (Warszawski Uniwersytet Medyczny, priority 2012, dated 2014)
Read-outs that look alike come from different tables or passages of the source.

Key:
HUVEC cells = test: MTT cytotoxicity assay, HUVEC cells; assay type: cell-based; settings: Homo sapiens, 48 h incubation, * = compound precipitated at 1 mM from cell cultures
Method: (§1) A series of dicarboximides derivatives (table 1) was tested for cytotoxic properties against four cell lines. The tests were conducted by means of MTT assay where yellow tetrazole salt was processed by the dehydrogenases in mitochondria of live cells into violet formazan. The following cell lines were used:
- HUVEC cells (normal human endothelial cells).
(§2) 1. HeLa, K562, HL60, HUVEC cells in an amount of 7 thousand cells / well (in 200 µL medium) were seeded in 96-well plates. Cells were incubated overnight in an incubator (37°C, 5% CO2)
(§3) 2. Test compounds were dissolved in DMSO and added in an amount of 2µL to the surface of the cells to give the following final concentrations in the cell culture (1 mM, 10 µm, 100 nM, 1 nM). As a control, cells exposed to 1% DMSO were used.
(§4) 3. Cytotoxicity of the test compounds was evaluated by MTT test. After 48-hour incubation of HeLa, K562, HL60 or HUVEC cells with the test compounds, MTT (5mg/mL) was added in an amount of 25µL/well. MTT, a yellow tetrazolium salt was reduced to purple formazan by mitochondrial dehydrogenases of living cells. The amount of formazan could be determined spectrophotometrically and was proportional to the number of live cells. Cells were incubated with MTT for 2 hours in an incubator (37°C, 5% CO2). Next, lysis buffer containing SDS and DMF was added (95µL/well) to each well and incubated overnight at 37°C, 5% CO2.
(§5) 4. The plates were analyzed by reading the absorbance at a wavelength of 570 nm and 650 nm using the plate-reader Fluostar Omega. The measured absorbance at 570 nm is proportional to the number of living cells. IC50 values (concentration of compound causing 50% cell mortality) were read from the charts by interpolation to 50% cell survival.

K562 cells [1] = test: MTT cytotoxicity assay, K562 cells; assay type: cell-based, human; settings: 48 h incubation, * = compound precipitated at 1 mM from cell cultures
Method: as §1
- K562 cells (human chronic myelogenous leukaemia) and
as §2, §3, §4, §5

HeLa cells = test: MTT cytotoxicity assay, HeLa cells; assay type: cell-based; settings: Homo sapiens, 48 h incubation, * = compound precipitated at 1 mM from cell cultures
Method: as §1
- HeLa cells (uterine cervix cancer)
as §2, §3, §4, §5

K562 cells [2] = settings: against K562 cells; for comparison; cited from earlier work
HL60 cells = test: MTT cytotoxicity assay, HL60 cells; assay type: cell-based; settings: Homo sapiens, HL-60, 48 h, 48 h incubation
Method: as §1
- HL60 cells (human acute myelogenous leukaemia)
as §2, §3, §4, §5

caspase 3 and 7 = test: Apo-ONE Homogeneous Caspase-3/7 Assay in K562 cells; assay type: cell-based, human; settings: for activity of caspase 3 and 7: 5 x IC50 (a5: 10 µM), 18 hours, compared with K562 and K562+DMSO, Fig. 1
Method: The observed cytotoxicity of compounds a3-7 was tested for its origin, i.e. induction of necrosis or apoptosis in the K562 cells of chronic myelogenous leukaemia.
K562 cells in RPMI 1640 medium containing 10% fetal calf serum and antibiotics were seeded on 96-well plate in an amount of 20x10^3 cells / well. Cells were cultured for 24 hours in an incubator (5% CO2, 37°C).
Compounds a3-a7 were dissolved in DMSO and added to the cell medium; final concentration in the cell culture was 5 x IC50. Cells cultured in the presence of 1% DMSO served as a negative control. Cells grown in the presence of 1 µM staurosporin (a strong inducer of apoptosis) served as a positive control. […]
The activity of caspase 3 and 7 was determined by means of Apo-ONE® Homogeneous Caspase-3/7 Assay (Promega, Madison, WI, USA), in compliance with manufacturer's guidelines. Cells were lysed and incubated with a profluorescent substrate for caspases for 1.5 hours at room temperature. Due to proteolytic activity of caspases, the profluorescent substrate was converted into a fluorescent product the amount of which could be determined by measurement of fluorescence intensity.
The fluorescence intensity in each well was measured using a plate reader Fluostar Omega (BMG-Labtech, Germany) at an excitation wavelength of 485 nm and emission 520 nm. The intensity of fluorescence is proportional to the activity of caspase 3 and 7 in the sample.

[3] = system: peripheral blood lymphocytes; settings: normal cells (peripheral blood lymphocytes); cited from earlier work
caspase-6 = settings: MOLT-4 cells; 5µM; after 24 hours of incubation; cited from earlier work
[4] = system: tumor cell lines (leukemia, breast cancer, neuroblastoma, colorectal cancer, liver, prostate, lung); settings: 13 tested tumor cell lines; cited from earlier work
caspase-3 = settings: MOLT-4 cells; 5µM; after 12 hours of incubation; cited from earlier work
[5] = * = compound precipitated at 1 mM from cell cultures

| Structure (SMILES) | IC50 (HUVEC cells) | IC50 (K562 cells [1]; Homo sapiens, K562, 48 h) | IC50 (HeLa cells) | further results |
| --- | --- | --- | --- | --- |
| CN(C)CCN1C(=O)C2C(C1=O)C1(c3ccccc3)CC2(c2ccccc2)C(c2ccccc2)=C1c1ccccc1 (stereo not drawn) [a1] | > 1000 µM | 1 µM | 1 µM | – |
| N.N.[Cl][Pt][Cl] [cis-platinum] | – | – | – | IC50 (K562 cells [2]): several to several dozens |
| CCC12C(=O)C(CC)(C(c3ccccc3)=C1c1ccccc1)C1C(=O)N(CC(O)CN(C)C)C(=O)C12 (stereo not drawn) [a8] | – | > 1000 µM | > 1000 µM | – |
| CC(=O)OC12C=CC(OC(C)=O)(CC1)C1C(=O)N(CCN3CCOCC3)C(=O)C12 (stereo not drawn) [b8] | – | > 1000 µM | > 1000 µM | – |
| CC1=CC2(C)CC(C)(C)C1C1C(=O)N(CCN3CCCCC3)C(=O)C12 (stereo not drawn) [b14] | – | 100 µM | 100 µM | – |
| CC(=O)OC12C=CC(OC(C)=O)(CC1)C1C(=O)N(CCCN(C)C)C(=O)C12 (stereo not drawn) [b10] | – | > 1000 µM | > 1000 µM | – |
| CCOC(=O)C1CC2C(=O)CC1(C)C1C(=O)N(CCN(C)C)C(=O)C21 (stereo not drawn) [c6] | > 1000 µM | > 1000 µM | 100 µM | – |
| CC(C)NCC(O)CN1C(=O)C2C(C1=O)C1(c3ccccc3)C(=O)C2(c2ccccc2)C(c2ccccc2)=C1c1ccccc1 (stereo not drawn) [a13] | 2 µM | 0.9 µM | 1 µM | – |
| CCC12C(=O)C(CC)(C(c3ccccc3)=C1c1ccccc1)C1C(=O)N(CCCN(C)C)C(=O)C12 (stereo not drawn) [a6] | > 1000 µM | – | > 1000 µM | IC50 (HL60 cells): 1 to 10 µM; IC50 (HL60 cells; [5]): > 1000 µM; activity of caspase 3 and 7 (caspase 3 and 7): do not increase; IC50 (K562 cells [1]): 8 µM |
| CCC12C(=O)C(CC)(C(c3ccccc3)=C1c1ccccc1)C1C(=O)N(CCN(C)C)C(=O)C12 (stereo not drawn) [a3] | > 1000 µM | – | > 1000 µM | IC50 (HL60 cells): 1 to 10 µM; IC50 (HL60 cells; [5]): > 1000 µM; activity of caspase 3 and 7 (caspase 3 and 7): do not increase; IC50 (K562 cells [1]): 10 µM |
| CCN(CC)CCN1C(=O)C2C3C(C)=CC(C)(CC3(C)C)C2C1=O (stereo not drawn) [b12] | – | > 1000 µM | 1000 µM | – |
| CC(C)NCC(O)CN1C(=O)C2C(C1=O)C1(c3ccccc3)CC2(c2ccccc2)C(c2ccccc2)=C1c1ccccc1 (stereo not drawn) [a9] | 1 µM | 1 µM | 1 µM | – |
| CCN(CC)CCN1C(=O)C2C3C=CC(OC)(CC3)C2C1=O (stereo not drawn) [b2] | – | > 1000 µM | > 1000 µM | – |
| CN(C)CC(O)CN1C(=O)C2C(C1=O)C1(c3ccccc3)CC2(c2ccccc2)C(c2ccccc2)=C1c1ccccc1 (stereo not drawn) [a10] | 1 µM | 1 µM | 1 µM | – |
| CCN(CC)CCN1C(=O)C2C(C1=O)C1(CC)C(=O)C2(CC)C(c2ccccc2)=C1c1ccccc1 (stereo not drawn) [a4] | > 1000 µM | – | > 1000 µM | IC50 (HL60 cells): 1 to 10 µM; IC50 (HL60 cells; [5]): > 1000 µM; activity of caspase 3 and 7 (caspase 3 and 7): do not increase; IC50 (K562 cells [1]): 4.5 µM |
| CC1=CC2(C)CC(C)(C)C1C1C(=O)N(CCCN(C)C)C(=O)C12 (stereo not drawn) [b15] | 700 µM | 90 µM | 100 µM | – |
| CC(C)COC12CCC(C(=O)C1)C1C(=O)N(CCN3CCOCC3)C(=O)C12 (stereo not drawn) [c3] | – | > 1000 µM | > 1000 µM | – |
| CCN(CC)CCN1C(=O)C2C(C1=O)C1(OC(C)=O)C=CC2(OC(C)=O)CC1 (stereo not drawn) [b7] | – | > 1000 µM | > 1000 µM | – |
| COC12C=CC(CC1)C1C(=O)N(CCN(C)C)C(=O)C12 (stereo not drawn) [b1] | – | > 1000 µM | > 1000 µM | – |
| CCN(CC)CCN1C(=O)C2C3CCC(OCC(C)C)(CC3=O)C2C1=O (stereo not drawn) [c2] | – | > 1000 µM | > 1000 µM | – |

| Structure (SMILES) | IC50 (HUVEC cells) | IC50 (K562 cells [1]; Homo sapiens, K562, 48 h) | IC50 (HeLa cells) | further results |
| --- | --- | --- | --- | --- |
| COC12C=CC(CC1)C1C(=O)N(CCN3CCOCC3)C(=O)C12 (stereo not drawn) [b3] | – | > 1000 µM | > 1000 µM | – |
| O=C1c2cccc3c([N+](=O)[O-])ccc(c23)C(=O)N1CCCO [6-nitro-2-(3-hydroxypropyl)-1H-benz[de]izoquinolino-1,3-dione] | – | – | – | IC50 [3]: 273 µM; caspase-6 activity (caspase-6): significant increase; tested tumor cell lines to which the compound was toxic [4]: 8 of 13; caspase-3 activity (caspase-3): significant increase |
| CCOC(=O)C1CC2C(=O)CC1(C)C1C(=O)N(CCN(CC)CC)C(=O)C21 (stereo not drawn) [c7] | – | > 1000 µM | > 1000 µM | – |
| CCOC(=O)C1CC2C(=O)CC1(C)C1C(=O)N(CCCN(C)C)C(=O)C21 (stereo not drawn) [c10] | – | > 1000 µM | > 1000 µM | – |
| COC12C=CC(CC1)C1C(=O)N(CCN3CCCCC3)C(=O)C12 (stereo not drawn) [b4] | – | > 1000 µM | > 1000 µM | – |
| CC1=CC2(C)CC(C)(C)C1C1C(=O)N(CCN(C)C)C(=O)C12 (stereo not drawn) [b11] | 300 µM | 100 µM | 90 µM | – |
| CN(C)CC(O)CN1C(=O)C2C(C1=O)C1(c3ccccc3)C(=O)C2(c2ccccc2)C(c2ccccc2)=C1c1ccccc1 (stereo not drawn) [a14] | 2 µM | 0.9 µM | 1 µM | – |
| CC(C)COC12CCC(C(=O)C1)C1C(=O)N(CCN(C)C)C(=O)C12 (stereo not drawn) [c1] | – | > 1000 µM | > 1000 µM | – |
| CC(C)COC12CCC(C(=O)C1)C1C(=O)N(CCCN(C)C)C(=O)C12 (stereo not drawn) [c5] | – | > 1000 µM | > 1000 µM | – |
| COC12C=CC(CC1)C1C(=O)N(CCCN(C)C)C(=O)C12 (stereo not drawn) [b5] | – | > 1000 µM | > 1000 µM | – |
| CC(=O)OC12C=CC(OC(C)=O)(CC1)C1C(=O)N(CCN(C)C)C(=O)C12 (stereo not drawn) [b6] | – | > 1000 µM | > 1000 µM | – |
| CCOC(=O)C1CC2C(=O)CC1(C)C1C(=O)N(CCN3CCOCC3)C(=O)C21 (stereo not drawn) [c8] | – | > 1000 µM | > 1000 µM | – |
| CC(C)NCC(O)CN1C(=O)C2C(C1=O)C1(C)C(=O)C2(C)C(c2ccccc2)=C1c1ccccc1 (stereo not drawn) [a11] | 70 µM | 90 µM | 90 µM | – |
| CCC12C(=O)C(CC)(C(c3ccccc3)=C1c1ccccc1)C1C(=O)N(CCN3CCCCC3)C(=O)C12 (stereo not drawn) [a5] | > 1000 µM | 1 to 10 µM | > 1000 µM | IC50 (HL60 cells): 1 to 10 µM; IC50 (HL60 cells; [5]): > 1000 µM; activity of caspase 3 and 7 (caspase 3 and 7): increased; activity of caspases 3 and 7 (caspase 3 and 7; a5 concentration = 10 µM, incubation time = 24h): increased; IC50 (K562 cells [1]): 2 µM |
| CC(C)COC12CCC(C(=O)C1)C1C(=O)N(CCN3CCCCC3)C(=O)C12 (stereo not drawn) [c4] | – | > 1000 µM | > 1000 µM | – |
| CN(C)CC(O)CN1C(=O)C2C(C1=O)C1(C)C(=O)C2(C)C(c2ccccc2)=C1c1ccccc1 (stereo not drawn) [a12] | 100 µM | 90 µM | 100 µM | – |
| CC(=O)OC12C=CC(OC(C)=O)(CC1)C1C(=O)N(CCN3CCCCC3)C(=O)C12 (stereo not drawn) [b9] | – | > 1000 µM | > 1000 µM | – |
| CN(C)CCCN1C(=O)C2C(C1=O)C1(c3ccccc3)CC2(c2ccccc2)C(c2ccccc2)=C1c1ccccc1 (stereo not drawn) [a2] | 4 µM | 1 µM | 1 µM | – |
| CC1=CC2(C)CC(C)(C)C1C1C(=O)N(CCN3CCOCC3)C(=O)C12 (stereo not drawn) [b13] | 100 µM | 90 µM | 90 µM | – |
| CCOC(=O)C1CC2C(=O)CC1(C)C1C(=O)N(CCN3CCCCC3)C(=O)C21 (stereo not drawn) [c9] | – | > 1000 µM | > 1000 µM | – |
